Counter-ions that a name gives are not always drawn.
Target: recombinant Human Phosphodiesterase B2 (PDE4B2) (Homo sapiens, UniProt Q07343)
Experiment: Human Phosphodiesterase B2 Radiometric Assay (yttrium silicate SPA beads, [3H]cyclic AMP)
Assay type: biochemical
Settings: recombinant human PDE4B2, radiometric SPA assay, 8 nM [3H]cyclic AMP; read-out: PDE4B2 pIC50 (converted)
Procedure, shortened: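 Read-out is scintillation proximity: yttrium silicate beads (with 18 mM ZnSO4, added to stop the reaction) bind 5′AMP formed from 8 nM [3H]cAMP over 20 min. Beforehand, compound and 0.1 mg/mL enzyme were preincubated 30 min at 30 °C in pH 7.5 HEPES buffer with MgCl2, EGTA and Brij 35; pIC50 values were curve-fitted.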

Chain of recombinant Human Phosphodiesterase B2 (PDE4B2) (Q07343 1-564 isoform Q07343-2): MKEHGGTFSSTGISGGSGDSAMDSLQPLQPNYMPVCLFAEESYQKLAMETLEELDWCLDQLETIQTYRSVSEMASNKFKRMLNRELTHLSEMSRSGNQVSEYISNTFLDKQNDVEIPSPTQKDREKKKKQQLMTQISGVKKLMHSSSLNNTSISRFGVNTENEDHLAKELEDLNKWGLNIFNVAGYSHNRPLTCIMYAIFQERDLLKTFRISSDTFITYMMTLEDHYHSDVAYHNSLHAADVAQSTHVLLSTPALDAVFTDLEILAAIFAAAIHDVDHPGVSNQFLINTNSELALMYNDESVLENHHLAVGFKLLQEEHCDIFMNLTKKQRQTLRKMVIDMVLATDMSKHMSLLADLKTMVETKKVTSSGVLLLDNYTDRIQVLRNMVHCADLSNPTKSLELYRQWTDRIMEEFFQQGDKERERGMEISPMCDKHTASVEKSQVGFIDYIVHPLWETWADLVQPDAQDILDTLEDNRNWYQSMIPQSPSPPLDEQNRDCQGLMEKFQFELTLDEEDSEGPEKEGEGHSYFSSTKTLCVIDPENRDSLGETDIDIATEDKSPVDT

| IC50 [nM] | Compound |
| --- | --- |
| 6.31 | CN(C)CCOc1cc(F)ccc1-c1cccc(-n2c(=O)n([C@H]3CC[C@@H](N(CCN(C)C)C(=O)c4cn5cc(F)ccc5n4)CC3)c(=O)c3cc(F)cnc32)c1 [Example 83, N-{cis-4-[1-{2′-[2-(dimethylamino)ethoxy]-4′-fluorobiphenyl-3-yl}-6-fluoro-2,4-dioxo-1,4-dihydropyrido[2,3-d]pyrimidin-3(2H)-yl]cyclohexyl}-N-[2-(dimethylamino)ethyl]-6-fluoroimidazo[1,2-a]pyridine-2-carboxamide] |
| 0.316 | CN(C)Cc1ccc(-c2cccc(-n3c(=O)n([C@H]4CC[C@@H](NC(=O)c5cn6cc(F)ccc6n5)CC4)c(=O)c4cc(F)cnc43)c2)c(O)c1 [Example 94, N-{cis-4-[1-{4′-[(dimethylamino)methyl]-2′-hydroxybiphenyl-3-yl}-6-fluoro-2,4-dioxo-1,4-dihydropyrido[2,3-d]pyrimidin-3(2H)-yl]cyclohexyl}-6-fluoroimidazo[1,2-a]pyridine-2-carboxamide] |
| 6.31 | CC(C)CCCC(C)n1c(=O)n([C@H]2CC[C@@H](NC(=O)c3cn4cc(F)ccc4n3)CC2)c(=O)c2cc(F)cnc21 (stereo partly drawn) [Example 36, N-{cis-4-[1-(1,5-dimethylhexyl)-6-fluoro-2,4-dioxo-1,4-dihydropyrido[2,3-d]pyrimidin-3(2H)-yl]cyclohexyl}-6-fluoroimidazo[1,2-a]pyridine-2-carboxamide] |
| 0.0631 | CC(C)N(CCO)Cc1ccc(-c2cccc(-n3c(=O)n([C@H]4CC[C@@H](NC(=O)C5(N(C)C)CC5)CC4)c(=O)c4cc(F)cnc43)c2)cc1 [Example 126, 1-(dimethylamino)-N-{cis-4-[6-fluoro-1-(4′-{[(2-hydroxyethyl)(isopropyl)amino]methyl}biphenyl-3-yl)-2,4-dioxo-1,4-dihydropyrido[2,3-d]pyrimidin-3(2H)-yl]cyclohexyl}cyclopropane-carboxamide] |
| 0.0158 | CN(C)C1(C(=O)N[C@H]2CC[C@@H](n3c(=O)c4cc(F)cnc4n(-c4cccc(-c5ccc(CN6CCN(CCO)CC6)cc5)c4)c3=O)CC2)CC1 [Example 211, 1-(dimethylamino)-N-{cis-4-[6-fluoro-1-(4′-{[4-(2-hydroxyethyl)piperazin-1-yl]methyl}biphenyl-3-yl)-2,4-dioxo-1,4-dihydropyrido[2,3-d]pyrimidin-3(2H)-yl]cyclohexyl}cyclopropanecarboxamide] |
| 0.501 | NCc1cccc(-c2cccc(-n3c(=O)n([C@H]4CC[C@@H](NC(=O)c5cn6cc(F)ccc6n5)CC4)c(=O)c4cc(F)cnc43)c2)c1 [Example 31, N-{cis-4-[1-[3′-(aminomethyl)biphenyl-3-yl]-6-fluoro-2,4-dioxo-1,4-dihydropyrido[2,3-d]pyrimidin-3(2H)-yl]cyclohexyl}-6-fluoroimidazo[1,2-a]pyridine-2-carboxamide. Hydrochloride] |
| 0.2 | CC(C)C(=O)N[C@H]1CC[C@@H](n2c(=O)c3cc(F)cnc3n(-c3cccc(-c4ccc(CN5CCN(C(C)C)CC5)cc4)c3)c2=O)CC1 [Example 238, N-{cis-4-[6-fluoro-1-{4′-[(4-isopropylpiperazin-1-yl)methyl]biphenyl-3-yl}-2,4-dioxo-1,4-di-hydropyrido[2,3-d]pyrimidin-3(2H)-yl]cyclohexyl}-2-methyl-propanamide] |
| 0.0501 | O=C(N[C@H]1CC[C@@H](n2c(=O)c3cc(F)cnc3n(-c3cccc(-c4ccc(CN5CCC[C@H]5CO)cc4)c3)c2=O)CC1)c1cn2c(n1)CCCC2 [Example 226, N-{cis-4-[6-fluoro-1-(4′-{[(2S)-2-(hydroxymethyl)pyrrolidin-1-yl]methyl}biphenyl-3-yl)-2,4-dioxo-1,4-dihydropyrido[2,3-d]pyrimidin-3(2H)-yl]cyclohexyl}-5,6,7,8-tetrahydroimidazo[1,2-a]pyridine-2-carboxamide] |
| 0.1 | O=C(N[C@H]1CC[C@@H](n2c(=O)c3cc(F)cnc3n(-c3cccc(-c4ccc(CN5CCN(C6CCCC6)CC5)cc4)c3)c2=O)CC1)c1cnccn1 [Example 295, N-{cis-4-[1-{4′-[(4-cyclopentylpiperazin-1-yl)methyl]biphenyl-3-yl}-6-fluoro-2,4-dioxo-1,4-dihydropyrido[2,3-d]pyrimidin-3(2H)-yl]cyclohexyl} pyrazine-2-carboxamide] |
| 0.398 | NC1(C(=O)N[C@H]2CC[C@@H](n3c(=O)c4cc(F)cnc4n(-c4cccc(-c5ccccc5)c4)c3=O)CC2)CC1 [Example 344, 1-amino-N-[cis-4-(1-biphenyl-3-yl-6-fluoro-2,4-dioxo-1,4-dihydropyrido[2,3-d]pyrimidin-3(2H)-yl)cyclohexyl]cyclopropanecarboxamide] |
| 63.1 | CN(C)[C@H]1CC[C@@H](n2c(=O)c3cc(F)cnc3n(-c3cccc(-c4ccccc4)c3)c2=O)CC1 [Example 66, 1-biphenyl-3-yl-3-[cis-4-(dimethylamino)cyclohexyl]-6-fluoropyrido[2,3-d]pyrimidine-2,4(1H,3H)-dione] |
| 0.501 | Cc1oncc1C(=O)N[C@H]1CC[C@@H](n2c(=O)c3cc(F)cnc3n(-c3cccc(-c4ccc(CN5CCN(C(C)C)CC5)cc4)c3)c2=O)CC1 [Example 240, N-{cis-4-[6-fluoro-1-{4′-[(4-isopropylpiperazin-1-yl)methyl]biphenyl-3-yl}-2,4-dioxo-1,4-di-hydropyrido[2,3-d]pyrimidin-3(2H)-yl]cyclohexyl}-5-methyl-isoxazole-4-carboxamide] |
| 0.0501 | Cc1cnc(C(=O)N[C@H]2CC[C@@H](n3c(=O)c4cc(F)cnc4n(-c4cccc(-c5ccc(CN6CCN(C7CCCC7)CC6)cc5)c4)c3=O)CC2)cn1 [Example 288, N-{cis-4-[1-{4′-[(4-cyclopentylpiperazin-1-yl)methyl]biphenyl-3-yl}-6-fluoro-2,4-dioxo-1,4-dihydropyrido[2,3-d]pyrimidin-3(2H)-yl]cyclohexyl}-5-methylpyrazine-2-carboxamide] |
| 0.00158 | O=C(N[C@H]1CC[C@@H](n2c(=O)c3cc(F)cnc3n(-c3cccc(-c4ccc(O)cc4CN4CCOCC4)c3)c2=O)CC1)c1cn2cc(F)ccc2n1 [Example 103, 6-fluoro-N-{cis-4-[6-fluoro-1-[4′-hydroxy-2′-(morpholin-4-ylmethyl)biphenyl-3-yl]-2,4-dioxo-1,4-dihydropyrido[2,3-d]pyrimidin-3(2H)-yl]cyclohexyl}imidazo[1,2-a]pyridine-2-carboxamide] |
| 0.126 | CN1CCCN(Cc2ccc(-c3cccc(-n4c(=O)n([C@H]5CC[C@@H](NC(=O)c6cc7c(o6)CCCC7=O)CC5)c(=O)c5cc(F)cnc54)c3)cc2)CC1 [Example 310, N-{cis-4-[6-fluoro-1-{4′-[(4-methyl-1,4-diazepan-1-yl)methyl]biphenyl-3-yl}-2,4-dioxo-1,4-dihydropyrido[2,3-d]pyrimidin-3(2H)-yl]cyclohexyl}-4-oxo-4,5,6,7-tetrahydro-1-benzofuran-2-carboxamide] |
| 0.0126 | O=C(N[C@H]1CC[C@@H](n2c(=O)c3cc(F)cnc3n(-c3cccc(-c4ccc(CCCNCCCO)cc4)c3)c2=O)CC1)c1cn2cc(F)ccc2n1 [Example 96, 6-fluoro-N-{cis-4-[6-fluoro-1-(4′-{3-[(3-hydroxypropyl)amino]propyl}biphenyl-3-yl)-2,4-dioxo-1,4-dihydropyrido[2,3-d]pyrimidin-3(2H)-yl]cyclohexyl}imidazo[1,2-a]pyridine-2-carboxamide] |
| 0.251 | COCCN(C)Cc1cc(O)ccc1-c1cccc(-n2c(=O)n([C@H]3CC[C@@H](NCc4cn5cc(F)ccc5n4)CC3)c(=O)c3cc(F)cnc32)c1 [Example 327, 6-fluoro-3-(cis-4-{[(6-fluoroimidazo[1,2-a]pyridin-2-yl)methyl]amino}cyclohexyl)-1-(4′-hydroxy-2′-{[(2-methoxyethyl)(methyl)amino]methyl}biphenyl-3-yl)pyrido[2,3-d]pyrimidine-2,4(1H,3H)-dione] |
| 0.2 | O=C(N[C@H]1CC[C@@H](n2c(=O)c3cc(F)cnc3n(-c3cccc(-c4cccc(CN5CCCCC5)c4)c3)c2=O)CC1)c1cn2cc(F)ccc2n1 [Example 14, 6-fluoro-N-{cis-4-[6-fluoro-2,4-dioxo-1-[3′-(piperidin-1-ylmethyl)biphenyl-3-yl]-1,4-dihydropyrido[2,3-d]pyrimidin-3(2H)-yl]cyclohexyl}imidazo[1,2-a]pyridine-2-carboxamide.] |
| 0.0316 | Cc1nc(C(=O)N[C@H]2CC[C@@H](n3c(=O)c4cc(F)cnc4n(-c4cccc(-c5ccc(CN6CCC(N7CCCCC7)CC6)cc5)c4)c3=O)CC2)cs1 [Example 357, N-{cis-4-[1-[4′-(1,4′-bipiperidin-1′-ylmethyl)biphenyl-3-yl]-6-fluoro-2,4-dioxo-1,4-dihydropyrido[2,3-d]pyrimidin-3(2H)-yl]cyclohexyl}-2-methyl-1,3-thiazole-4-carboxamide] |
| 0.00794 | CC(C)N1CCN(Cc2ccc(-c3cccc(-n4c(=O)n([C@H]5CC[C@@H](NC(=O)c6cn7c(n6)CCCC7)CC5)c(=O)c5cc(F)cnc54)c3)cc2)CC1 [Example 134, N-{cis-4-[6-fluoro-1-{4′-[(4-isopropylpiperazin-1-yl)methyl]biphenyl-3-yl}-2,4-dioxo-1,4-dihydropyrido[2,3-d]pyrimidin-3(2H)-yl]cyclohexyl}-5,6,7,8-tetrahydroimidazo[1,2-a]pyridine-2-carboxamide] |
| 0.0398 | CN1CCCN(Cc2ccc(-c3cccc(-n4c(=O)n([C@H]5CC[C@@H](NC(=O)c6nc7ccccc7[nH]c6=O)CC5)c(=O)c5cc(F)cnc54)c3)cc2)CC1 [Example 360, N-{cis-4-[6-fluoro-1-{4′-[(4-methyl-1,4-diazepan-1-yl)methyl]biphenyl-3-yl}-2,4-dioxo-1,4-dihydropyrido[2,3-d]pyrimidin-3(2H)-yl]cyclohexyl}-3-oxo-3,4-dihydroquinoxaline-2-carboxamide] |
